According to patent publication US20210278408A1, “METHODS OF TREATMENT OF CANCER WITH SUBSTITUTED PYRROLE AND PYRAZOLE COMPOUNDS AND DIAGNOSIS OF CANCERS SUSCEPTIBLE TO TREATMENT WITH SUBSTITUTED PYRROLE AND PYRAZOLE COMPOUNDS” (Bantam Pharmaceutical, LLC, priority 2018, published 2021):
Entries after “also recorded” stand apart in the source; their conditions may differ. Where two headings read alike, the source gives them in different places.

How the values were obtained:
[1] = Pharmacokinetics in CD-1 mice, single oral dose compared to single intravenous dose; assay type: in vivo; conditions: for bioavailability: CD-1, mouse, po; for Cmax: blood plasma
Description: Pharmacokinetic Properties of Compound A197 Compound A197 levels in blood plasma of CD-1 mice given a single, oral dose of the agent and compared to a single intravenous dose, were measured to assess basic pharmacokinetic parameters. A197 was dissolved in 1% NMP, 0.3% Tween-80 in 0.5% methylcellulose at a dose volume of 10 ml/kg. Following compound dosing, blood was collected by tail vein bleed at 30 minutes, 1, 2, 4, 8, 12, 24 and 48 hrs following dosing.

HCT-116 xenograft = experiment: Human tumor xenograft model, colorectal cancer cell line HCT-116; assay type: in vivo
Description: FIG. 10 is a set of graphs of in vivo treatment results for Athymic Nude mice engrafted with the DLBCL line SU-DHL-10 (left panel) or the CRC line HCT-116 (right panel). After 14 days, groups of mice (n=10 per group) were randomized by tumor volume and treated with Compound B19 (left panel) or Compound A197 (right panel). All animals dosed p.o. q.d. (orally once per day). Tumor burden was measured over 21 days. Compound B19 efficacy was monitored for 21 days following last dose to determine relapse. All data plotted as the mean±SEM, n=10 mice per group.
The positive results of the PK studies led to an evaluation of Compound A197 and Compound B19 in murine xenograft models of human tumors. Compound A197 was tested in a human tumor xenograft model using KRAS mutated colorectal cancer cell line HCT-116. Athymic nude mice (HSD:Athymic Nude-Foxn1 nu, Envigo) were inoculated subcutaneously with 5×10^6 HCT-116 cells in the right rear flank. The animals wethen staged and randomized by tumor size to achieve dose groups of 10 animals each with an average tumor volume of 150 mm^3. Tumor bearing mice were dosed once daily by oral gavage with a vehicle (5% NMP, 15% PEG400, 10% Solutol, and 70% D5W) or with A197 dissolved in vehicle to provide a dose concentration of 10 ml/kg. Compound B19 was tested in a human xenograft model using the human diffuse large B-cell lymphoma line SU-DHL-10 (ATCC). […]

Cell cycle = experiment: High content imaging screen: cell cycle; assay type: cell-based
Description: (§1) Mechanism of Action Screens A series of broad high content imaging, transcriptomic, metabolomic, and CRISPR KO screens were performed to link Compound A197 activity to a probable method of action. The outcome of these screens included two notable observations.

Autophagy = experiment: High content imaging screen: autophagy (LC3 cleavage, autophagic granules); assay type: cell-based
Description: as §1

Oxidative Stress = experiment: High content imaging screen: oxidative stress (ROS); assay type: cell-based
Description: as §1

GPCR = experiment: In vitro assays: GPCR; assay type: biochemical; conditions: 69 family members
HDAC = experiment: In vitro assays: HDAC; assay type: biochemical
Description: as §1

Metabolites = experiment: Metabolomic screen; assay type: cell-based; conditions: GSH, ATP/AMP ratio, isocitrate and aconitate
Description: as §1

eIF2α phosphorylation = eIF2α phosphorylation in HCT-116 cells, Western blotting; assay type: cell-based, human; conditions: 5 μM, 30 minutes, 1, 2 or 4 hrs
Description: FIG. 12 is a set of graphs of Compound A197-induced phosphorylation of eIF2a. HCT-116 cells were treated with 5 μM Compound A197. eIF2α and p-eIF2α levels were determined by Western blotting. All data are mean±SD (n=3). *=p<0.05; #p<0.005.
The canonical pathway of ATF4 induction involves eIF2α phosphorylation. To determine the levels of levels of eIF2α and p-eIF2α were determined using Western blotting. HCT-116 cells (1.5×10^5 per well) were cultured in 12 well tissue culture plates and treated with 5 μM Compound A197 dissolved in McCoys complete medium with 10% FBS for 30 minutes, 1,2 or 4 hrs. Following treatment, media was removed, the cells were washed with PBS and then lysed following addition of RIPA lysis buffer. The cell lysate is then clarified by centrifugation at 14,000×g for 10 minutes. The clarified lysate protein levels are determined using BCA methodology. All lysates are diluted with RIPA buffer to give a final concentration of 200 μg/ml. As a control, HCT-116 cells were starved for essential amino acids (EAA), which increases eIF2α phosphorylation via EIF2AAK4 (GCN2). The HCT-116 cells were plated as above but the media was removed and replaced with Earls Balanced salt solution. All subsequent steps for lysate preparation were identical to those described above.

SU-DHL-2 = experiment: Total cellular GSH levels (GSH-Glo): SU-DHL-2; assay type: cell-based, human; conditions: 4 hrs, mean ± std. dev.
Description: (§2) NHLF, BJAB, SU-DHL-2, and HCT-116 cells were treated with Compound A197 for 4 hours prior to lysate harvest. Total cellular glutathione (GSH) levels were determined using a luminescent endpoint (GSH-Glo, Promega). Cell proliferation was determined using Cell-Titre Glo following 72 hours of compound treatment. All data shown is mean±SD of three biological replicates.

HCT-116 = experiment: Cell proliferation, Cell-Titre Glo, 72 hours: HCT-116; assay type: cell-based; conditions: Homo sapiens, mean ± std. dev.
Description: as §2

[2] = mouse, plasma, 0.5 mg/kg, Intravenous, 0.5 mpk

SMILES: Cc1nn(-c2nc(-c3ccc(C(F)(F)F)cc3)c(SC(C)C)s2)c(C(=O)O)c1-c1cccc(F)c1 [Compound A197, 4-(3-fluorophenyl)-1-(5-(isopropylthio)-4-(4-(trifluoromethyl)phenyl)thiazol-2-yl)-3-methyl-1H-pyrazole-5-carboxylic acid]
- bioavailability ([1]; plasma, 2.5 mg/kg, Oral, 2.5 mpk, read-out: % F): 59.1%
- bioavailability ([1]; plasma, 2.5 mg/kg, single oral dose compared to single intravenous dose, read-out: Bioavailability): 59%
- t1/2 ([1]; Intravenous, 0.5 mpk): 5.6 h
- Cmax ([1]; mouse, 0.5 mg/kg, Intravenous, 0.5 mpk): 2880 ng/mL
- Cmax ([1]; mouse, 2.5 mg/kg, Oral, 2.5 mpk): 2610 ng/mL
- AUC(0-inf) [1, 2]: 14500 ng·h/mL
- clearance [1, 2]: 0.58 mL/min/kg
- Vd ([1]; mouse, plasma, 0.5 mg/kg, Intravenous, 0.5 mpk, read-out: Vss): 0.285 L/kg
- AUC(0-inf) ([1]; mouse, plasma, 2.5 mg/kg, Oral, 2.5 mpk): 42900 ng·h/mL
- Tmax ([1]; mouse, plasma, 2.5 mg/kg, single oral dose, read-out: Plasma drug tmax): 6 h
- half-life ([1]; mouse, plasma, iv, 0.5 mg/kg): 5.6 h
- tumor growth in the solid tumor model (HCT-116 xenograft; HCT-116 xenograft, once daily oral gavage, 21 days, p<01 for 75 and 30 mpk doses): significantly slower growth
- tolerability, signs of toxicity (HCT-116 xenograft; markers of liver function, metabolism, and myelopoiesis, tumor bearing mice (data not shown)): well-tolerated with no overt signs of toxicity
- Outcome: Cell cycle (Cell cycle): G1 arrest associated with TP53 independent CDKN1A
- Outcome: Autophagy (Autophagy): No detectable LC3 cleavage; no formation of
- Outcome: Oxidative Stress (Oxidative Stress): No production of ROS
- Outcome: GPCR (GPCR): No activity on 69 family members
- Outcome: HDAC (HDAC): No activity on any HDAC
- Outcome: Metabolites (Metabolites): induced specific alterations in redox (decreased GSH), energy (decrease in ATP/AMP ratio), and TCA cycle intermediates (decreased isocitrate/aconitate) in tumor cells but not NHLF; also recorded: Decrease in total GSH levels; decrease in ATP/AMP
- eIF2α phosphorylation (eIF2α phosphorylation): Increased eIF2α phosphorylation within 30 minutes
- GSH % Max reduction (SU-DHL-2): 52 ± 4%
- IC50 (SU-DHL-2; Homo sapiens, read-out: GSH IC50 (Abs)): 120 ± 50 nM
- IC50 (HCT-116): 530 ± 210 nM
